Assay results: patent publication US5508293A, “Pyridinecarboxyimidamide compounds and the use thereof” (Kirin Beer Kabushiki Kaisha, priority 1992, dated 1996)

Legend:
[1] = tested on: spontaneously hypertensive rats (SHR), mean blood pressure; test: Antihypertensive activities on spontaneously hypertensive rat (intravenously); format: in vivo, rat (male spontaneously hypertensive rats; conditions: iv, anesthetized male SHR, i.v., cumulative dosing, read-out: ED20 (the dose which lowered the blood pressure by 20%)
Description: Animals were anesthetized with urethane: α-chloralose.
A cannula was inserted into the carotid artery for measuring the mean blood pressure via a pressure transducer. A test compound was cumulatively administered through the cannula inserted into the femoral vein with an interval of 30 minutes. Variation of blood pressure was determined as the percentage change in the blood pressure before administration of the test compound, and the ED20 (the dose which lowered the blood pressure by 20%) was calculated from a dose-response curve.

beagles, blood pressure = test: Antihypertensive activity on anesthetized beagles (intravenously); format: in vivo, dog (beagles)
Description: Antihypertensive activities of 5-amino-N-cyano-N'-[2-(2-chlorophenyl)ethyl]-3-pyridinecarboximidamide (N-cyano-N'-[2-(2-chlorophenyl)ethyl]-5-(3aminopyridine)carboximidamide; Compound No. 6) according to the present invention was assessed by comparison with those of N-cyano-N'-[2-(2-chlorophenyl)ethyl]-3-pyridinecarboximidamide which is thought to be a wellknown compound most similar to the compound of the present invention (see Japanese Patent Laid-Open Publication No. 163061/1991).
Experiments were carried out with beagles (body weight, 9.2-10.4 kg) under anesthetization by intravenous administering 30 mg/kg of pentobarbital sodium. A cannula was inserted into the right femoral artery for measuring blood pressure. […]

[2] = tested on: renal hypertensive beagles, blood pressure; test: Antihypertensive activities on renal hypertensive beagles (oral); format: in vivo, dog (2-kidney-1-clipped renal hypertensive beagles)
Description: Beagles (body weight, 9.0-11.0 kg) were anesthetized with 30 mg/kg of pentobarbital sodium intravenously. The left renal artery was carefully exposed through a flank incision, and wound with two silk sutures and ligated together with a 18G needle (external diameter; 1.2 mm) at two positions with the distance of 5 mm. A polyethylene tube for the measurement of blood pressure (IMG, PE-100) was inserted into the femoral artery, and the other terminal of the tube was exteriorized at the back of the neck. The polyethylene tube was filled with physiological saline containing 500 U/ml of heparin and sealed with a steel wire plug except on the measurement of the blood pressure. Antibiotics (penicilline and streptomycin, manufactured by Meiji Seika) were administered intramuscularly for three days after operation to prevent infections.
After 5-amino-N-cyano-N'-[2-(2-chlorophenyl)ethyl]-3-pyridinecarboximidamide was put into a No. 3 gelatin capsule, a gap was filled with lactose (100 mesh). The capsule was administered orally, and blood pressure was measured for 24 hours after administering the drug. Measurement was carried out without anesthetization under suspension with sling sheet. Blood pressure was measured by connecting the tube for measuring blood pressure to a pressure transducer (TP-400T; manufactured by Nihon Kohden) and recorded on a polygraph.

[3] = Acute toxicity, oral, Compound No. 6; format: in vivo, rat (male SD rats, 5 weeks old); conditions: rat, in vivo, male SD rats (5 weeks old)
Description: (§1) Acute toxicity of 5-amino-N-cyano-N'-[2-(2-chlorophenyl)ethyl]-3-pyridinecarboximidamide (Compound No. 6) of the present invention on oral administration was examined with male SD rats (5 weeks old). As a result, no rats died at the dose of 50 mg/kg. LD50 was in the range over 50 mg/kg.

male SD rats = test: Acute toxicity, oral, Compound No. 6; format: in vivo, rat (male SD rats, 5 weeks old); conditions: 50 mg/kg, male SD rats
Description: as §1

SMILES: N#CNC(=NCCc1ccccc1Cl)c1cncc(N)c1 [Compound No. 6, 5-amino-N-cyano-N'-[2-(2-chlorophenyl)ethyl]-3-pyridinecarboximidamide]
- ED20 [1]: 4.6 µg/kg
- decrease in blood pressure (beagles, blood pressure; i.v., 3-30 μg/kg): Dose-dependent decrease in blood pressure was observed
- duration of the antihypertensive action (beagles, blood pressure; i.v., dose 3 μg/kg): 10 min
- Antihypertensive activity (%) (beagles, blood pressure; i.v., dose 3 μg/kg, 0 min after dosage): 0.0%
- Antihypertensive activity (%) (beagles, blood pressure; i.v., dose 3 μg/kg, 1 min after dosage): -3.9%
- Antihypertensive activity (%) (beagles, blood pressure; i.v., dose 3 μg/kg, 2 min after dosage): -12.8%
- Antihypertensive activity (%) (beagles, blood pressure; i.v., dose 3 μg/kg, 3 min after dosage): -10.3%
- Antihypertensive activity (%) (beagles, blood pressure; i.v., dose 3 μg/kg, 5 min after dosage): -6.4%
- Antihypertensive activity (%) (beagles, blood pressure; i.v., dose 3 μg/kg, 7.5 min after dosage): -3.9%
- Antihypertensive activity (%) (beagles, blood pressure; i.v., dose 3 μg/kg, 10 min after dosage): -3.9%
- duration of the antihypertensive action (beagles, blood pressure; i.v., dose 10 μg/kg): 45 min
- Antihypertensive activity (%) (beagles, blood pressure; i.v., dose 10 μg/kg, 0 min after dosage): 0.0%
- Antihypertensive activity (%) (beagles, blood pressure; i.v., dose 10 μg/kg, 1 min after dosage): -16.0%
- Antihypertensive activity (%) (beagles, blood pressure; i.v., dose 10 μg/kg, 2 min after dosage): -22.7%
- Antihypertensive activity (%) (beagles, blood pressure; i.v., dose 10 μg/kg, 3 min after dosage): -26.7%
- Antihypertensive activity (%) (beagles, blood pressure; i.v., dose 10 μg/kg, 5 min after dosage): -26.7%
- Antihypertensive activity (%) (beagles, blood pressure; i.v., dose 10 μg/kg, 7.5 min after dosage): -26.7%
- Antihypertensive activity (%) (beagles, blood pressure; i.v., dose 10 μg/kg, 10 min after dosage): -26.7%
- Antihypertensive activity (%) (beagles, blood pressure; i.v., dose 10 μg/kg, 15 min after dosage): -20.0%
- Antihypertensive activity (%) (beagles, blood pressure; i.v., dose 10 μg/kg, 20 min after dosage): -16.0%
- Antihypertensive activity (%) (beagles, blood pressure; i.v., dose 10 μg/kg, 30 min after dosage): -13.3%
- Antihypertensive activity (%) (beagles, blood pressure; i.v., dose 10 μg/kg, 45 min after dosage): -6.7%
- duration of the antihypertensive action (beagles, blood pressure; i.v., dose 30 μg/kg): 60 min
- Antihypertensive activity (%) (beagles, blood pressure; i.v., dose 30 μg/kg, 0 min after dosage): 0.0%
- Antihypertensive activity (%) (beagles, blood pressure; i.v., dose 30 μg/kg, 1 min after dosage): -29.3%
- Antihypertensive activity (%) (beagles, blood pressure; i.v., dose 30 μg/kg, 2 min after dosage): -40.0%
- Antihypertensive activity (%) (beagles, blood pressure; i.v., dose 30 μg/kg, 3 min after dosage): -42.7%
- Antihypertensive activity (%) (beagles, blood pressure; i.v., dose 30 μg/kg, 5 min after dosage): -46.7%
- Antihypertensive activity (%) (beagles, blood pressure; i.v., dose 30 μg/kg, 7.5 min after dosage): -44.0%
- Antihypertensive activity (%) (beagles, blood pressure; i.v., dose 30 μg/kg, 10 min after dosage): -42.7%
- Antihypertensive activity (%) (beagles, blood pressure; i.v., dose 30 μg/kg, 15 min after dosage): -40.0%
- Antihypertensive activity (%) (beagles, blood pressure; i.v., dose 30 μg/kg, 20 min after dosage): -36.0%
- Antihypertensive activity (%) (beagles, blood pressure; i.v., dose 30 μg/kg, 30 min after dosage): -33.3%
- Antihypertensive activity (%) (beagles, blood pressure; i.v., dose 30 μg/kg, 45 min after dosage): -24.0%
- Antihypertensive activity (%) (beagles, blood pressure; i.v., dose 30 μg/kg, 60 min after dosage): -16.0%
- antihypertensive activity determined with the passage of time (beagles, blood pressure; summary statement): extremely potent and sustainable
- Average blood pressure ([2]; 0.25 mg/kg p.o., 0 hour after administration): 122.4 ± 4.4 mmHg
- Average blood pressure ([2]; 0.25 mg/kg p.o., 1 hour after administration): 100.9 ± 7.4 mmHg
- Average blood pressure ([2]; 0.25 mg/kg p.o., 2 hour after administration): 85.7 ± 0.3 mmHg
- Average blood pressure ([2]; 0.25 mg/kg p.o., 4 hour after administration): 102.8 ± 3.9 mmHg
- Average blood pressure ([2]; 0.25 mg/kg p.o., 6 hour after administration): 110.1 ± 2.6 mmHg
- Average blood pressure ([2]; 0.25 mg/kg p.o., 8 hour after administration): 112.6 ± 3.4 mmHg
- Average blood pressure ([2]; 0.25 mg/kg p.o., 24 hour after administration): 118.8 ± 4.8 mmHg
- Average blood pressure ([2]; 0.50 mg/kg p.o., 0 hour after administration): 126.6 ± 0.5 mmHg
- Average blood pressure ([2]; 0.50 mg/kg p.o., 1 hour after administration): 68.1 ± 7.4 mmHg
- Average blood pressure ([2]; 0.50 mg/kg p.o., 2 hour after administration): 84.8 ± 6.1 mmHg
- Average blood pressure ([2]; 0.50 mg/kg p.o., 4 hour after administration): 99.7 ± 12.3 mmHg
- Average blood pressure ([2]; 0.50 mg/kg p.o., 6 hour after administration): 106.2 ± 9.5 mmHg
- Average blood pressure ([2]; 0.50 mg/kg p.o., 8 hour after administration): 114.4 ± 7.3 mmHg
- Average blood pressure ([2]; 0.50 mg/kg p.o., 24 hour after administration): 111.8 ± 3.9 mmHg
- decrease in blood pressure ([2]; oral, 0.25 and 0.5 mg/kg): successive decrease in blood pressure was observed
- LD50 [3]: > 50000 µg/kg
- deaths (male SD rats): no rats died
